Test results reported in ChEMBL document CHEMBL1201862, “PubChem BioAssay data set” (2004).
Calls of active or inactive are those of the source.

What was measured:
cells [1] = details: A549
cells [2] = details: HEK293
[3] = biological target: T1, Runt-related transcription factor 1/Core-binding factor subunit beta (Homo sapiens, UniProt Q01196+Q13951); test: disruptors of Runt domain/CBFb-SMMHC interaction – biochemical, FRET, Cerulean-Runt, Venus-CBFb-SMMHC, uHTS, […] (AID 1434); type: protein assay
[4] = biological target: T1, Runt-related transcription factor 1/Core-binding factor subunit beta; test: Runt domain/CBFb-SMMHC interaction disruptors – biochemical, TR-FRET (AID 1438); type: protein assay
[5] = viability loss in HepG2 liver cells – cell-based, ATP luminescence, cherry-pick, set 6, cytotoxicity control, dose response (AID 1053125); type: functional
[6] = Trypanosoma cruzi growth suppression in host cells – NIH3T3 host cells, beta-gal luminescence, confirmation (AID 2044); type: functional, cell-based;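 further: intracellular parasites grown in NIH/3T3 mouse fibroblasts as host cells; luminescent beta-galactosidase reporter signal from transgenic T. cruzi replicating inside host cells; inhibitors lower the luminescence signal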
[7] = NIH3T3 cell viability loss – ATP luminescence, mouse fibroblasts, counter-screen, dose response (AID 2010); type: functional, cell-based;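 further: cells exposed to compound for about 90 hours before reading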
[8] = biological target: Protein disulfide-isomerase A6 (Homo sapiens, UniProt Q15084); test: reduced insulin turbidity driven by ERp5 (PDIA6) – biochemical, absorbance 650 nm, cherry-picked samples, dose response (AID 720566)
Mu-type opioid receptor = Mu-type opioid receptor (Homo sapiens, UniProt P35372); test: Late-stage results from the probe development effort to identify antagonists of OPRK1: luminescence-based cell-based dose response OPRM1 counterscreen, Set 2.; type: functional
[9] = biological target: Delta-type opioid receptor (Homo sapiens, UniProt P41143); test: Late-stage results from the probe development effort to identify antagonists of OPRK1: fluorescence-based cell-based dose response OPRD1 counterscreen, Set 2.; type: functional
[10] = biological target: Sphingosine 1-phosphate receptor 1 (Homo sapiens, UniProt P21453); test: Late-stage counterscreen for antagonists of kappa opioid receptor 1 (OPRK1): fluorescence-based cell-based dose response assay to identify antagonists of Sphingosine 1-Phosphate Receptor 1 (S1P1).; type: functional
[11] = biological target: Kappa-type opioid receptor (Homo sapiens, UniProt P41145); test: Late-stage fluorescence-based cell-based dose response assay for antagonists of kappa opioid receptor 1 (OPRK1).; type: functional
[12] = A549 cell viability loss – cherry-picked samples, cytotoxicity control, dose response (AID 1053184); type: functional, cell-based
[13] = biological target: T2, Sentrin-specific protease 8 (Homo sapiens, UniProt Q96LD8); type: functional
T2 sequence (Q96LD8 whole entry): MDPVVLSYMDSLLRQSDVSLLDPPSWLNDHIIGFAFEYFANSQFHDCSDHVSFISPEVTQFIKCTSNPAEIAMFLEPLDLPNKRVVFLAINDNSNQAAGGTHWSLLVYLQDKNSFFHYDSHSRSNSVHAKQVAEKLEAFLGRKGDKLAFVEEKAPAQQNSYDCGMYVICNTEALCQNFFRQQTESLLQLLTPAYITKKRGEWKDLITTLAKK

Phospholipase A2 = Phospholipase A2 (Homo sapiens, UniProt P04054); type: functional;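 further: confirmatory dose-response counterscreen on phospholipase A2, testing hits that came from an ultra-high-throughput screen for ATG4B inhibitors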
[14] = biological target: 1-phosphatidylinositol 4,5-bisphosphate phosphodiesterase beta-3 (Homo sapiens, UniProt Q01970); test: Fluorescence-based biochemical high throughput dose response assay to identify inhibitors of phospholipase C isozymes (PLC-B3).
[15] = biological target: Tyrosyl-DNA phosphodiesterase 2 (Homo sapiens, UniProt O95551); test: potency against TDP2 phosphodiesterase activity – biochemical, epi absorbance, IC50, dose response (AID 743297)
[16] = biological target: T2, Sentrin-specific protease 8; type: functional; remark: listed apart in the source
[17] = biological target: 1-phosphatidylinositol 4,5-bisphosphate phosphodiesterase gamma-1 (Homo sapiens, UniProt P19174); test: Counterscreen for inhibitors of phospholipase C isozymes (PLC-B3): Fluorescence-based biochemical high throughput dose response assay to identify inhibitors of phospholipase C isozymes (PLC-gamma1).
[18] = viability loss in HeLa cells – cytotoxicity control for MgcRacGAP inhibitor project, dose response (AID 624300); type: functional
[19] = biological target: T3, Histone-lysine N-methyltransferase NSD2 (Homo sapiens, UniProt O96028); type: biochemical
T3 sequence (O96028 whole entry): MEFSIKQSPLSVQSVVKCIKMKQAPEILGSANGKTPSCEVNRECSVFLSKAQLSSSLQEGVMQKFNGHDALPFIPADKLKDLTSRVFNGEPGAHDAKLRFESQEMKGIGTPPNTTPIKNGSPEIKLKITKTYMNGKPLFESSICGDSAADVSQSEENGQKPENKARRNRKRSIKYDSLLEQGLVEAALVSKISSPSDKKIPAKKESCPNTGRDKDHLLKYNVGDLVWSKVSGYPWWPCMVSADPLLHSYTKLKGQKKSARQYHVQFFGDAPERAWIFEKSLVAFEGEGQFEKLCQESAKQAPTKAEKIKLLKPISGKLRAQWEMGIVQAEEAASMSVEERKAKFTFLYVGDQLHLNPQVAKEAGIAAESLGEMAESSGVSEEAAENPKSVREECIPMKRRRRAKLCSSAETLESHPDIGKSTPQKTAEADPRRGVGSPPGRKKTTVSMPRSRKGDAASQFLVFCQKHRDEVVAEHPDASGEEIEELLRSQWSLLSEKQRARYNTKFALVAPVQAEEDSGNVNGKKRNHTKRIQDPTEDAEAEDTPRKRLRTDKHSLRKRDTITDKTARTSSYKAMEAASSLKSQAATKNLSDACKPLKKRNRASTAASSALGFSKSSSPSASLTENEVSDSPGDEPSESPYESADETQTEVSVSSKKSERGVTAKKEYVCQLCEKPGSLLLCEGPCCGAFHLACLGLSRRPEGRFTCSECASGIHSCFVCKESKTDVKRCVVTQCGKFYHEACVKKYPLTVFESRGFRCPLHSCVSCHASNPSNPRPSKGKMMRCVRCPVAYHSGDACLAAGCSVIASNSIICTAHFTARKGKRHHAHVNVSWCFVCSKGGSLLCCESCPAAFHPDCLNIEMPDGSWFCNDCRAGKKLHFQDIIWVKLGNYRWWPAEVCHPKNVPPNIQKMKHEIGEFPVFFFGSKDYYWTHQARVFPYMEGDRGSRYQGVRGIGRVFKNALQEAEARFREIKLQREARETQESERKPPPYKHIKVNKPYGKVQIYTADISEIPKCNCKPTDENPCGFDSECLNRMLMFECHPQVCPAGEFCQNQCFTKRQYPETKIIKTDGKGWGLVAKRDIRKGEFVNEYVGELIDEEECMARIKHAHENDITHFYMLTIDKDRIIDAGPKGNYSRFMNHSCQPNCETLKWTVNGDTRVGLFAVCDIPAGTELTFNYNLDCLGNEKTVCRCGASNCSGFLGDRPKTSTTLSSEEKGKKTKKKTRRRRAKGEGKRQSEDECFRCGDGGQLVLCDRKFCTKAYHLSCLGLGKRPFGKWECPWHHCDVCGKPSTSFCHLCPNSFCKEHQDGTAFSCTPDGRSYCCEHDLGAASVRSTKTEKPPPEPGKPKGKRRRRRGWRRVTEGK

Beta-galactosidase = Beta-galactosidase (Escherichia coli, UniProt Q8VNN2); test: detection-enzyme interference by beta-gal modulators – biochemical, E. coli enzyme, set 3, artefact control for CCR6 antagonist project, dose response (AID 504712); type: functional
[20] = Fluorescence-based cell-based high throughput dose response assay for inhibitors of the interaction of nucleotide-binding oligomerization domain containing 2 (NOD2) and the receptor-interacting serine-threonine kinase 2 (RIPK2).; type: functional; details: Homo sapiens
[21] = biological target: T4, Rac GTPase-activating protein 1 (Homo sapiens, UniProt Q9H0H5); test: blockers of MgcRacGAP-driven Rac1 GTP hydrolysis – biochemical, ADP Hunter fluorescence, primary and confirmatory, confirmation (AID 624330); type: functional
T4 sequence (Q9H0H5 whole entry): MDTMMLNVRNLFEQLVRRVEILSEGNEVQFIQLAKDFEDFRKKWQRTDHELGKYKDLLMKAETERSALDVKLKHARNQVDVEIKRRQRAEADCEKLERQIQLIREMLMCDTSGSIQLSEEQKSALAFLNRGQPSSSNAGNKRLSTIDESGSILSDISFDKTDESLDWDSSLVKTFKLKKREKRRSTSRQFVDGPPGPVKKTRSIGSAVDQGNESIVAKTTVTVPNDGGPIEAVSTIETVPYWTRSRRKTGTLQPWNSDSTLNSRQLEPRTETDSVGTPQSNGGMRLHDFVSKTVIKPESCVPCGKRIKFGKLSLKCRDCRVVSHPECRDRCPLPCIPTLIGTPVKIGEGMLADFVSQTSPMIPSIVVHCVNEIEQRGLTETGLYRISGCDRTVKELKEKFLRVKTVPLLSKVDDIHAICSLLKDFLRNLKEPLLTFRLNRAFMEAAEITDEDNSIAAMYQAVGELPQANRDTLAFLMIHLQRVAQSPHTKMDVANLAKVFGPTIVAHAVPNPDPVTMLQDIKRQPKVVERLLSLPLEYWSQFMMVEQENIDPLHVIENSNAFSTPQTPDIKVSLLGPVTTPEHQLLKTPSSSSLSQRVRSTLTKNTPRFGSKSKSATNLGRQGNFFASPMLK

[22] = biological target: Heat shock protein HSP 90-alpha (Homo sapiens, UniProt P07900); type: functional, organism-based
Vero = test: viability of Vero cells under compound – cytotoxicity control for flavivirus capping enzyme inhibitors (AID 588742); type: functional; details: Chlorocebus sabaeus
Genome polyprotein = Genome polyprotein (dengue virus type 2, UniProt P29990); test: flavivirus cap methylation enzyme inhibition – biochemical, confirmation dose response, primary screen (AID 588689); type: functional
Cysteine protease ATG4B = Cysteine protease ATG4B (Homo sapiens, UniProt Q9Y4P1); type: functional;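 further: Fluorescence-based dose-response confirmation assay measuring inhibition of ATG4B activity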
Kallikrein-7 = Kallikrein-7 (Homo sapiens, UniProt P49862); test: Fluorescence Intensity-based biochemical primary high throughput dose response assay to identify activators of kallikrein-7 (K7) zymogen.
[23] = general mammalian cell viability loss – activator set, cherry-pick, cytotoxicity control for miR-122 modulator project, dose response (AID 720690); type: functional, cell-based;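 further: HEK293T human cells scored for general mammalian cytotoxicity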
[24] = general mammalian cell viability loss – inhibitor set, cherry-pick, set 2, cytotoxicity control for miR-122 modulator project, dose response (AID 720697); type: functional, cell-based

T1 sequence (Q01196 whole entry, the tested form may be a part): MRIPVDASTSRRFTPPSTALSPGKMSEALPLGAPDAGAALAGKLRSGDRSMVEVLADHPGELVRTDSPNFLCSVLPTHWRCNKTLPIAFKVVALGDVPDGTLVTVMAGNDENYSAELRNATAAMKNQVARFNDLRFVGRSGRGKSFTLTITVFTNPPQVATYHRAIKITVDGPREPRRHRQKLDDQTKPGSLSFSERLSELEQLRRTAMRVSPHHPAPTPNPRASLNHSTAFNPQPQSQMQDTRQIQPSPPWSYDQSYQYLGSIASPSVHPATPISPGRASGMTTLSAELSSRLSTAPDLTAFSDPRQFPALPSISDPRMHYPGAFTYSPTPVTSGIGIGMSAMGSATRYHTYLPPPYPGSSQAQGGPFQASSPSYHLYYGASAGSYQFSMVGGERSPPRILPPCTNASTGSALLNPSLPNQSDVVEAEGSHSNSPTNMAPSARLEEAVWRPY
T1 sequence (Q13951 whole entry, the tested form may be a part): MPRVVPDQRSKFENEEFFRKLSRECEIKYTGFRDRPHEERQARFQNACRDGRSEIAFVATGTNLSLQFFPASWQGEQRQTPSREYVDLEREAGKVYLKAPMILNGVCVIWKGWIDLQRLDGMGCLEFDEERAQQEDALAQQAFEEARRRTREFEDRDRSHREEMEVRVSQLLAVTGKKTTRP
Chain of Mu-type opioid receptor (P35372 whole entry): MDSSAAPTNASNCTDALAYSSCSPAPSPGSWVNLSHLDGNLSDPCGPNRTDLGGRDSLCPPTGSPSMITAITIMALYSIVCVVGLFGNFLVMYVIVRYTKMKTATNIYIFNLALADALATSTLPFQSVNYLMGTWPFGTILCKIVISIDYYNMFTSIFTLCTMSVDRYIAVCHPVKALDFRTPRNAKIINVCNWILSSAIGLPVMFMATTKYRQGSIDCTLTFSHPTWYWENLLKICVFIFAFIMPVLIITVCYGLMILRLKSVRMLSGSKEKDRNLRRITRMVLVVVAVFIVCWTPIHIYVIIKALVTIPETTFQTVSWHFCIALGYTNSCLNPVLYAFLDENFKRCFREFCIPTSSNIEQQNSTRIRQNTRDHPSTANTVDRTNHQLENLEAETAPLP
Chain of Kappa-type opioid receptor (P41145 whole entry): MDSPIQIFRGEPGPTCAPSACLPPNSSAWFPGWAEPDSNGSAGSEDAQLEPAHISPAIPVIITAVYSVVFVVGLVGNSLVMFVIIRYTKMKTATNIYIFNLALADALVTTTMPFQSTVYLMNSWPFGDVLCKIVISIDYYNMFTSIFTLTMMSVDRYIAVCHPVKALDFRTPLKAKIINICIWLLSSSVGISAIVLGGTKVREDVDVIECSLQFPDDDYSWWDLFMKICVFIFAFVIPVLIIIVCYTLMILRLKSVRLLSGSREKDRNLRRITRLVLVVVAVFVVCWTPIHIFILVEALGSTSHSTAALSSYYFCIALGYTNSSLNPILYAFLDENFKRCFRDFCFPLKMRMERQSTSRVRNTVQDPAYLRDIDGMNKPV
Chain of 1-phosphatidylinositol 4,5-bisphosphate phosphodiesterase beta-3 (Q01970 whole entry): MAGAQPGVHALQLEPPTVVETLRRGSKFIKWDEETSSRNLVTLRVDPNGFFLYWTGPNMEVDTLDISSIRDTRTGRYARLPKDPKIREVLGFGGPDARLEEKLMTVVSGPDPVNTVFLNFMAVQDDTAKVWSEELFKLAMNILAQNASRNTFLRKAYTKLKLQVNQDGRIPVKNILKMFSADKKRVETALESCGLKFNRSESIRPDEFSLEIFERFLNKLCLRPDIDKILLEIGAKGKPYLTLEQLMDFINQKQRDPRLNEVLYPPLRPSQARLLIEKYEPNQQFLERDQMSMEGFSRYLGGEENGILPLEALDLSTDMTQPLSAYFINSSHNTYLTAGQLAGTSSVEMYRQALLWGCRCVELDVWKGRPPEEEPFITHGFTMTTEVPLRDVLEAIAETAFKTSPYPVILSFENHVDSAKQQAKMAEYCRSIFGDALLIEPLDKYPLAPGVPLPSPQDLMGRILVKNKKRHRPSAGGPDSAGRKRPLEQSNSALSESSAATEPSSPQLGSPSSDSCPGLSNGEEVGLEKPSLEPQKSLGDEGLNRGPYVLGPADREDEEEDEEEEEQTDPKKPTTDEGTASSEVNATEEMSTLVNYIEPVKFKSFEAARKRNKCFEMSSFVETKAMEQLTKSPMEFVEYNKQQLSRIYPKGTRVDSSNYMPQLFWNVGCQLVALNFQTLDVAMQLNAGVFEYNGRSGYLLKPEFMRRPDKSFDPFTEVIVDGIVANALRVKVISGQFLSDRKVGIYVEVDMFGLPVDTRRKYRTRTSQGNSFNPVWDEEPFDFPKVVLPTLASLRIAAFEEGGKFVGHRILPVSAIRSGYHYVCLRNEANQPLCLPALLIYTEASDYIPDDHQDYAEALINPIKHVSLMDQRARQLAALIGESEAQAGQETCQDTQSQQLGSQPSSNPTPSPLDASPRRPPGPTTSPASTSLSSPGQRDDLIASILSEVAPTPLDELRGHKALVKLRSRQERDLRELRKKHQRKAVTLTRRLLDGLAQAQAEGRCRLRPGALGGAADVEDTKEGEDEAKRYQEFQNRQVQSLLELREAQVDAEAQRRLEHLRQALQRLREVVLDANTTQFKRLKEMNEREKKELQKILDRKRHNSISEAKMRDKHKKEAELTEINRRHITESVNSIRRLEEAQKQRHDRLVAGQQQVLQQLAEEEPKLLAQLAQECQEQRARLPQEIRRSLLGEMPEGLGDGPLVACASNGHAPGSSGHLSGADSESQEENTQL
Chain of Cysteine protease ATG4B (Q9Y4P1 whole entry): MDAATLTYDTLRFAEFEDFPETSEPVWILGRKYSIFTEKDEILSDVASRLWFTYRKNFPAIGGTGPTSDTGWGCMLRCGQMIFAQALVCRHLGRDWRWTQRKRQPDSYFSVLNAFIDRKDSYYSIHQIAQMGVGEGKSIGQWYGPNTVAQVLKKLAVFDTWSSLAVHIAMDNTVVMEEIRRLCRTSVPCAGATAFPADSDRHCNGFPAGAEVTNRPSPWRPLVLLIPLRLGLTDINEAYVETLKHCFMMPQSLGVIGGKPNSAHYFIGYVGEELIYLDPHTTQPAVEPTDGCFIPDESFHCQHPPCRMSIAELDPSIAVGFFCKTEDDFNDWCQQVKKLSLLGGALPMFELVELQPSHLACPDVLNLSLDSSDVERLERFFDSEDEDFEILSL
Chain of Genome polyprotein (P29990 2492-3391 limits assumed): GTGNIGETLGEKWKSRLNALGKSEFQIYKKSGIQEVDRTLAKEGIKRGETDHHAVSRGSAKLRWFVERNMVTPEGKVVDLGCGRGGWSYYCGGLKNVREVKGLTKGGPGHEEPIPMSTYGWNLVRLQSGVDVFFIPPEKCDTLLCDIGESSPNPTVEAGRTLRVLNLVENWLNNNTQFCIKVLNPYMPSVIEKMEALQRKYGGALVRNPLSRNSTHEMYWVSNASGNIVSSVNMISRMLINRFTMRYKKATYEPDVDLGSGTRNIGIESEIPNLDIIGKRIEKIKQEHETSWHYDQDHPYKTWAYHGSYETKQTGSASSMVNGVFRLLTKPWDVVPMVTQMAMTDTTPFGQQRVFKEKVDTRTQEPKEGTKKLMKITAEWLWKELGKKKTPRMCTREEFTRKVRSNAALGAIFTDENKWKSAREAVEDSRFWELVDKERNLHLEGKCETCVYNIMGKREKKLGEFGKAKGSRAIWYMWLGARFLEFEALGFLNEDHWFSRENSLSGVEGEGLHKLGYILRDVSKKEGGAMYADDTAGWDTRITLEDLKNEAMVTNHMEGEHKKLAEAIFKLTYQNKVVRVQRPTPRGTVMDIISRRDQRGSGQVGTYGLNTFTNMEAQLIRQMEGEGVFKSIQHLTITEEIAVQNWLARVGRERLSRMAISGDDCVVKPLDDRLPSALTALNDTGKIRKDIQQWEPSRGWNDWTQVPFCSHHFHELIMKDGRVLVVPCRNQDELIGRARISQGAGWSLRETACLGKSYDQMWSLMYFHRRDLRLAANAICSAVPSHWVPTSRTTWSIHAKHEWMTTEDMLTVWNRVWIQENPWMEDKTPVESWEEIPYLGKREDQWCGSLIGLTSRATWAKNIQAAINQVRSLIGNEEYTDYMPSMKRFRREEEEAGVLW
Chain of Beta-galactosidase (Q8VNN2 whole entry, the tested form may be a part): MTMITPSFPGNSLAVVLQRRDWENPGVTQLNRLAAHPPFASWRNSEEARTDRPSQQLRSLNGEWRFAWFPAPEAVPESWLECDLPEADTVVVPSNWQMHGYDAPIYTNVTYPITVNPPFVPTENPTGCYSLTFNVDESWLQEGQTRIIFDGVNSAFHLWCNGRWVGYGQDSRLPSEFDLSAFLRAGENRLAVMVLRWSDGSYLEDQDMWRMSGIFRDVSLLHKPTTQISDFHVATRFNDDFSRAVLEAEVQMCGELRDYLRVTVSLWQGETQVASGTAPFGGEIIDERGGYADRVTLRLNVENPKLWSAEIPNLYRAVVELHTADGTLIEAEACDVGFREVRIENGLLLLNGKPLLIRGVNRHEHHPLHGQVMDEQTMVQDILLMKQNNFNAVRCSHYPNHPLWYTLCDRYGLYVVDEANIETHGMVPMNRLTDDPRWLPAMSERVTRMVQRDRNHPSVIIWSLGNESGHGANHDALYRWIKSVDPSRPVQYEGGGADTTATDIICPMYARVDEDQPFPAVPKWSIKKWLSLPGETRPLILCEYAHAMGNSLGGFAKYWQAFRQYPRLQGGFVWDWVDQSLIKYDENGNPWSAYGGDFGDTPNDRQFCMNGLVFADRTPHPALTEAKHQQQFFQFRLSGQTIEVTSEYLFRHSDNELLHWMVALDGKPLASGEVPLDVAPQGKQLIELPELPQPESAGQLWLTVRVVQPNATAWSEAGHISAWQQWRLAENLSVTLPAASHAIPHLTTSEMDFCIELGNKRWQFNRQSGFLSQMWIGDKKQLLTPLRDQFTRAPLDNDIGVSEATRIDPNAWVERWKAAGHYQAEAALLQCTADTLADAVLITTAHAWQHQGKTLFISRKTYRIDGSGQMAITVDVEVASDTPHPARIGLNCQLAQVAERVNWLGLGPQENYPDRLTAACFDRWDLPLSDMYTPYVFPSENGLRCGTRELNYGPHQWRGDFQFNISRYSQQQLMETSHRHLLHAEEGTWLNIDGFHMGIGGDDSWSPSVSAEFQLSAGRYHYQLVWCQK

Compound: COc1ccc(C2c3ccc(O)cc3Oc3ncn4nc(-c5ccccn5)nc4c32)cc1 (configuration not stated)
- AC50 (cells [1]): > 52 µM (inactive)
- AC50 (cells [2]): > 24 µM (inactive)
- IC50 [3]: 22.9 µM (active)
- IC50 [4]: > 100 µM (inactive)

Compound: N#Cc1c2ccc(O)cc2n2ccccc12
- AC50 [5]: > 52 µM (inactive)
- EC50 [6]: 0.68 µM (active)
- AC50 (cells [2]): > 52 µM (inactive)
- EC50 [7]: > 60 µM (not active)

Compound: Cc1cc(OCCCCOc2ccc(S(N)(=O)=O)c(C)c2)ccc1S(N)(=O)=O
- AC50 [8]: 45.5 µM (active)

Compound: Clc1ccc2c(Nc3ccc4c(c3)OCO4)ccnc2c1
- IC50 (Mu-type opioid receptor): > 50 µM (inactive)
- IC50 [9]: > 50 µM (inactive)
- IC50 [10]: > 50 µM (inactive)
- IC50 [11]: 13.8 µM (inactive)

Compound: C[C@@H]1CN([C@@H](C)CO)C(=O)Cc2cc(NC(=O)C3CCCCC3)ccc2O[C@@H]1CN(C)Cc1ccc(Cl)c(Cl)c1
- AC50 [12]: 37.8 µM (active)

Compound: O=C1C(=C(I)I)c2ccccc2-c2ccccc21
- IC50 [13]: 1.74 µM (active)
- IC50 (Phospholipase A2): 58.1 µM (inactive)
- IC50 [14]: > 122 µM (inactive)
- IC50 [15]: 8.29 µM (active)
- IC50 [16]: > 100 µM (inactive)
- IC50 [17]: > 122 µM (inactive)
- CC50 [18]: 27.4 µM (active)
- AC50 [19]: 2.24 µM (active)
- IC50 (Beta-galactosidase): > 66.6 µM (inactive)
- IC50 [20]: 1.2 µM (active)
- IC50 [21]: 19.8 µM (active)
- AC50 [22]: 5.65 µM (active)
- CC50 (Vero): 15.3 µM (active)
- IC50 (Genome polyprotein): 29 µM (active)
- IC50 (Cysteine protease ATG4B): 7.13 µM (active)

Compound: C=C(C)Cn1c2ccc(NC(=O)NCc3ccccc3)cc2c(=O)n1C
- EC50 (Kallikrein-7): > 69.5 µM (inactive)

Compound: C[C@@H]1CN([C@@H](C)CO)S(=O)(=O)c2ccc(-c3cncnc3)cc2O[C@@H]1CN(C)Cc1ccc(Oc2ccccc2)cc1
- AC50 [23]: 24.9 µM (active)
- AC50 [24]: 22.7 µM (active)
